Experimental data taken from PMC6015222, “Targeting Phosphopeptide Recognition by the Human BRCA1 Tandem BRCT Domain to Interrupt BRCA1-Dependent Signaling” (Cell Chemical Biology, 2018).
“And” between values parts separate entries of the source, which are not always exact repeats. Identical values can stand only once. Non-standard residues stand in square brackets, D forms with d. TAMRA = tetramethylrhodamine label; pS = N[C@@H](COP(=O)(O)O)C(=O)O

Experiments:
BRCA1 tBRCT [1] = target: T1, BRCA1 tBRCT (Homo sapiens, UniProt P38398); test: Competitive MST: inhibition of BACH1 phosphopeptide binding to BRCA1 tBRCT; conditions: for activity in competitive MST, in words / IC50: BACH1 phosphopeptide vs BRCA1 tBRCT; for IC50: MST, mean ± SD of three experiments, NB, no binding
T1 construct: BRCA1 tBRCT residues 1646-1859; made in house; host or cells: E. coli BL21(DE3)
Description: Protein domains used in the assay were labeled with NT-647-NHS fluorescent dye using the Monolith NT™ Protein Labeling Kit (NanoTemper Technologies). Assays were carried out in 20mM Tris buffer, pH 7.4, with 200mM NaCl, 0.05% Tween-20 and 2mM DTT. For the direct binding assay, 10μl of labeled protein at a final concentration of 20nM was mixed with 10μl of test compound and incubated on ice for 10 min. For the competitive assay, 10μl of labeled protein at a final concentration of 20nM was mixed with 2μM cognate peptide substrate at the EC80 concentration determined by prior titration using a 16-point serial dilution by direct-binding MST. For both assays, samples prepared as above were centrifuged at 15000 rpm at 4°C for 10 min and 4μl of the supernatant was loaded into premium glass capillaries (NanoTemper Technologies). MST analysis was performed at MST power of 40% and LED power of 80%, at 22°C temperature using a Monolith NT.115 (NanoTemper Technologies). An initial “Capillary Scan” was performed to scan for fluorescence across the length of the capillary tray to determine the exact position of each capillary before the MST measurement was started. Test compounds were assayed at 16 different concentrations by serial dilution, and data were analysed using NanoTemper analysis software. Kd values were determined using “T-jump + Thermophoresis” settings. The change in thermophoresis between different experimental conditions was expressed as the change in the normalized fluorescence (ΔFnorm), which is defined as Fhot/Fcold (F-values correspond to average fluorescence values between defined areas in the curve under steady-state conditions under control (Fcold) or experimental (Fhot) conditions. Titration of the non-fluorescent ligand causes a gradual change in thermophoresis, which is plotted as ΔFnorm to yield a binding curve, which was then fitted to derive binding constants.

[2] = system: BRCT domain of poly-ADP ribose polymerase; parameters: method as in Na et al., 2015; conditions: ref Na et al., 2015; cited from earlier work
BRCA1 tBRCT [3] = target: T1, BRCA1 tBRCT; test: AlphaScreen assay: displacement of cognate biotinylated phosphopeptide from BRCA1 tBRCT; conditions: 10-point dose response, read-out: IC50, inhibition of binding of cognate phosphopeptide to BRCA1 tBRCT
Description: We tested 6x-Histidine-tagged BRCA1 tBRCT, TOPBP1 tBRCT 7/8 or GRB2 SH2, and their cognate biotinylated peptide substrates. Initial checkerboard titrations were carried out to determine the optimal concentration of protein and peptide for each screen. Assays were conducted in Costar 96-well flat bottom white polystyrene plates using assay buffer (20mM Tris buffer pH 7.4, 200mM NaCl, 0.05% Tween-20, 2mM DTT). 5x-working concentrations of the reagents were dispensed in 10μl each in the order: 6x-Histidine tagged protein, biotinylated peptide, test compound. Plates were incubated at room temperature for 20 min and 10 μl each of nickel chelate AlphaLISA® acceptor beads and AlphaScreen® Streptavidin donor beads (both from Perkin Elmer) at a final concentration of 20 μg/ml were added. Plates were covered with adhesive seals and incubated in the dark for 1 h at 25°C. The AlphaScreen® signal was read using TECAN infinite M1000 Pro microplate reader at excitation wavelength 680nm and emission wavelength 520-620nm. 1% DMSO controls were run in parallel, and used to calculate percent inhibition. A 10-point dose response was performed in triplicate to determine IC50 values for each compound.

[4] = Solubility in aqueous buffers; assay type: physicochemical
[5] = target: T2, human BRCA1 tandem BRCT domain (residues 1646-1859) (human, UniProt P38398-1 1646-1859, NT-647-NHS fluorescent dye (in the MST assays only)); test: fluorescence polarisation; 75 nM BRCA1 tBRCT and 10 nM TAMRA-labelled BACH1 peptide, with compound at 125 uM; 20 mM Tris pH 7.4, 200 mM NaCl, 0.05% Tween-20, 2 mM DTT; room temperature; conditions: both partners purified
T2 construct: BRCA1, human, tandem BRCT domain, residues 1646-1859; Synthetic gene in pET28a, codon optimised for E. coli; No removal of the His tag is described; also called BRCA1 tBRCT; 6x His-BRCA1 tBRCT; source: E. coli BL21(DE3), purified (HisTrap HP, Superdex-75 gel filtration); not shown: His6, N-terminal, kept
T2 sequence (P38398 1646-1859): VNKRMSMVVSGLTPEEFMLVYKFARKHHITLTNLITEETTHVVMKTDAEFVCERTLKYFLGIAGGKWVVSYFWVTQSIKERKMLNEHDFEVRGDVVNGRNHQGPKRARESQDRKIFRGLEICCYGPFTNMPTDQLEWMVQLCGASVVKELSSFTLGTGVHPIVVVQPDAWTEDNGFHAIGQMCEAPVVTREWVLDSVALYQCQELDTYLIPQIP

T1 sequence (P38398 1646-1859): as above

Cc1nc2cc(CN3CCN(Cc4ccccc4F)CC3)ccc2[nH]1 [CCBT2908, 5-((4-(2-fluorobenzyl)piperazin-1-yl)methyl)-2-methyl-1H-benzo[d]imidazole]
activity in competitive MST, in words (BRCA1 tBRCT [1]): inactive

O=C(c1ccc2nc(-c3ccccc3)[nH]c2c1)N1CCN(Cc2ccc(O)cc2)CC1 [CCBT2106, (4-(4-hydroxybenzyl)piperazin-1-yl)(2-phenyl-1H-benzo[d]imidazole-6-yl)methanone]
IC50 (BRCA1 tBRCT [1]): 3.6 µM

Cc1ccc(CN2CCN(C(=O)c3ccc4nc(-c5ccccc5)[nH]c4c3)CC2)cc1 [CCBT2107, (4-(4-methylbenzyl)piperazin-1-yl)(2-phenyl-1H-benzo[d]imidazol-6-yl)methanone]
IC50 (BRCA1 tBRCT [1]): 0.3 µM

Cc1cc2c(C(C)C)c(O)c(O)c(C=O)c2c(O)c1-c1c(C)cc2c(C(C)C)c(O)c(O)c(C=O)c2c1O [Gossypol]
binding to the BRCT domain of poly-ADP ribose polymerase [2]: reported to bind

Cc1nc2cc(C(=O)N3CCN(Cc4ccccc4F)C[C@H]3C(C)C)ccc2[nH]1 [CCBT2905, (R)-(4-(2-fluorobenzyl)-2-isopropylpiperazin-1-yl)(2-methyl-1H-benzo[d]imidazol-5-yl)methanone]
IC50 (BRCA1 tBRCT [1]): 56 µM

CC(C)c1nc2ccc(C(=O)N3CCN(Cc4ccccc4F)CC3)cc2[nH]1 [CCBT2009, (4-(2-fluorobenzyl)piperazin-1-yl) (2-isopropyl-1H-benzo[d]imidazol-6-yl) methanone]
activity in competitive MST, in words (BRCA1 tBRCT [1]): abrogated activity

Cc1nc2cc(C(=O)N3CCN(Cc4ccccc4F)C[C@@H]3C(C)C)ccc2[nH]1 [CCBT2906]
IC50 (BRCA1 tBRCT [1]): 1.7 µM

Cc1nc2cc(C(=O)N3CCN(Cc4ccccc4F)CC3)ccc2[nH]1 [CCBT2907, (4-(2-fluorobenzyl)piperazin-1-yl)(2-methyl-1H-benzo[d]imidazol-5-yl)methanone]
IC50 (BRCA1 tBRCT [1]): > 53 µM and ~53 µM

Cc1nc2cc(C(=O)N3CCN(Cc4ccccc4F)CC3C(C)C)ccc2[nH]1 (stereo not drawn) [CCBT002, (4-(2-fluorobenzyl)-2-isopropylpiperazin-1-yl) (2-methyl-1H-benzo[d]imidazol-5-yl)methanone]
IC50 (BRCA1 tBRCT [3]): 47.3 µM
solubility in aqueous buffers [4]: limited solubility

O=C(c1ccc2[nH]c(-c3ccncc3)nc2c1)N1CCN(Cc2ccccc2F)CC1 [CCBT2082, (4-(2-fluorobenzyl)piperazin-1-yl)(2-(pyridin-4-yl)-1H-benzo[d]imidazol-5-yl)methanone]
IC50 (BRCA1 tBRCT [1]): 0.315 ± 0.18 µM
decrease in activity relative to Bractoppin (BRCA1 tBRCT [1]; competitive MST): 5 fold

O=C(c1ccc2[nH]c(N3CCOCC3)nc2c1)N1CCN(Cc2ccccc2F)CC1 [CCBT2084, (4-(2-fluorobenzyl)piperazin-1-yl)(2-morpholino-1H-benzo[d]imidazol-5-yl) methanone]
activity in competitive MST, in words (BRCA1 tBRCT [1]): abrogated activity

CC(C)CN1CCN(C(=O)c2ccc3[nH]c(-c4ccccc4)nc3c2)CC1 [CCBT2047, (4-isobutylpiperazin-1-yl)(2-phenyl-1H-benzo[d]imidazol-5-yl) methanone]
activity in competitive MST, in words (BRCA1 tBRCT [1]): abolishes activity

B1: TAMRA-labelled phosphopeptide from BACH1 (TAMRA_GGSRSTpSPTFNK-NH2) (peptide)
peptide: {TAMRA}-GGSRST[pS]PTFNK-NH2
notes: two added glycines before the BACH1 stretch; stretch around the Ser990 phosphosite; the helicase BRIP1 is meant; also called TAMRA-labeled BACH1 peptide; source: synthetic peptide, bought: Designer Bioscience
binding result [5]: binds
